In US11028093B2, “4,6-substituted-pyrazolo[1,5-a]pyrazines as janus kinase inhibitors” (Array BioPharma Inc., priority 2014, dated 2021):
Where two headings read alike, the source gives them in different places.

Tests used:
Format in all cases: biochemical
Human Tyk2 kinase domain = Human Tyk2 kinase domain (Homo sapiens (Human), UniProt P29597); assay: Tyk2 Inhibition Assay (Omnia kinase fluorescence peptide substrate assay, 1 mM ATP)
Excerpt: (§1) The assays described in Examples A, B, C and D for the determination of Tyk2, JAK1, JAK2 and JAK3 kinase activity, respectively, utilized the Omnia® Kinase fluorescence peptide substrate-based technology (Invitrogen). The specific components of the assay mixture are described in Examples A, B, C and D. In these assays, Mg^2+ is chelated upon phosphorylation of the Omnia peptide by the kinase to form a bridge between the chelation-enhanced fluorophore Sox and the phosphate, resulting in an increase in fluorescence emission at 485 nm when excited at […]. The reactions were therefore read at excitation 360 nm and emission was measured at 485 nm every 50 seconds for 45 minutes using a PerkinElmer EnVision Multilabel Plate Reader.
(§2) The final buffer conditions for Tyk2, JAK1, JAK2, and JAK3 assays were as follows: 25 mM HEPES, pH 7.4, 10 mM MgCl2, 0.01% Triton X-100 and 1 mM DTT.
(§3) Two-μL aliquots of these were transferred to a fresh plate for a ten-fold intermediate dilution with assay buffer. Five-μL aliquots of the diluted compounds were then transferred to 20-μL of assay mixtures described in Examples A, B, C and D for a final concentration of DMSO of 2%. […] For each plate, percent of control (POC) values were calculated for each well according to the following equation:
(§4) where Xmax=Average Uninhibited Controls • Xmin=Average Background IC50's were estimated from the POC's using a standard 4-parameter logistic model:
(§5) where A=Minimum Y (Bottom Asymptote) • B=Maximum Y (Top Asymptote) • C=EC50 • D=Slope Factor • X=Compound Concentration (nM) • Y=POC
(§6) The IC50 is defined as the concentration of inhibitor at which the POC equals 50 for the fitted curve.
Compounds of Formula I were screened for their ability to inhibit Tyk2 using the general enzyme inhibition assay method, in which the assay mixture contained 1 mM ATP, 8 μM Omnia® Y12 peptide (Catalog # IVGN KPZ3121C; Invitrogen Corporation, Carlsbad, Calif.) and 1 nM Tyk2 in a total volume of 25 μL. […]

JAK2 = JAK2 (Homo sapiens (Human), UniProt O60674); assay: JAK2 Inhibition Assay (Omnia kinase fluorescence peptide substrate assay, 1 mM ATP)
Chain of JAK2 (O60674 808-1132): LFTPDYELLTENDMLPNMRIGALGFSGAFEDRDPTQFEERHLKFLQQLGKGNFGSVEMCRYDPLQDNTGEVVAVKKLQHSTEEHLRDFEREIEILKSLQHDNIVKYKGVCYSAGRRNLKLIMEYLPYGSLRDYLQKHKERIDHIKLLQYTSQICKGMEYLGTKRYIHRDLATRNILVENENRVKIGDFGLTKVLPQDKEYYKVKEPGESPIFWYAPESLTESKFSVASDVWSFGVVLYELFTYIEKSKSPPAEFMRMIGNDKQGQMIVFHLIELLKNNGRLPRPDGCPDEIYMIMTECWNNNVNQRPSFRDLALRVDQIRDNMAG
Excerpt: as §1, §2, §3, §4, §5, §6
(§7) Compounds of Formula I were screened for their ability to inhibit JAK2 using the general enzyme inhibition assay method, in which the assay mixture contained 1 mM ATP, 10 μM Omnia® Y7 peptide (Catalog # IVGN KNZ3071C, Invitrogen Corporation, Carlsbad, Calif.) and 4 nM JAK2 in a total volume of 25 μL. JAK2 was purchased from Invitrogen Corporation, Carlsbad, Calif. (catalog # IVGN PV4288).

JAK1 = JAK1 (Homo sapiens (Human), UniProt P23458); assay: JAK1 Inhibition Assay (Omnia kinase fluorescence peptide substrate assay, 1 mM ATP)
Chain of JAK1 (P23458 866-1154): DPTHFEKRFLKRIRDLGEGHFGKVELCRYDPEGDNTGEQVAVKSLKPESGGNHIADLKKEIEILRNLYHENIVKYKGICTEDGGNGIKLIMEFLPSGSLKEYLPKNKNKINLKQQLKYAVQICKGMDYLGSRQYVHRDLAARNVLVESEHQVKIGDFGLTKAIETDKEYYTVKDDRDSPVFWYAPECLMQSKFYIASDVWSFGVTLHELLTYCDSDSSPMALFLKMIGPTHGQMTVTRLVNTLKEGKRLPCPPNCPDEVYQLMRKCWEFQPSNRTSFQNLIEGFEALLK
Excerpt: as §1, §2
as §3, with “equation: […]” for “equation:”

JAK3 = JAK3 (Homo sapiens (Human), UniProt P52333); assay: JAK3 Inhibition Assay (Omnia kinase fluorescence peptide substrate assay, 1 mM ATP)
Chain of JAK3 (P52333 781-1124): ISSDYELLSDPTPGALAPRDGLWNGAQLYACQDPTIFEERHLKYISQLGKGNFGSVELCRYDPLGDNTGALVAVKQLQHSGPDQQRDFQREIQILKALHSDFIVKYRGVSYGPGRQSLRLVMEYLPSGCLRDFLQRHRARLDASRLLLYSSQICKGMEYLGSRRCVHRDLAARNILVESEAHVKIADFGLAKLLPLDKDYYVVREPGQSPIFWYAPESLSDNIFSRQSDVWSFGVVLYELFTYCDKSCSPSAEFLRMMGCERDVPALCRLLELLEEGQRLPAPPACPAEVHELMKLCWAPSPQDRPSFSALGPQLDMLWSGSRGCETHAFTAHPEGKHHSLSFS
Excerpt: as §1, §2, §3, §4, §5, §6
as §7, with “JAK3” for “JAK2”, “2” for “4”, “PV4080).” for “PV4288).”

[1] = read-out: TYK2 Enzyme IC50 1 mM ATP, 1 mM ATP, averaged IC50 ranges
[2] = read-out: JAK2 Enzyme IC50 1 mM ATP, 1 mM ATP, averaged IC50 ranges

Chain of Human Tyk2 kinase domain (P29597 886-1187): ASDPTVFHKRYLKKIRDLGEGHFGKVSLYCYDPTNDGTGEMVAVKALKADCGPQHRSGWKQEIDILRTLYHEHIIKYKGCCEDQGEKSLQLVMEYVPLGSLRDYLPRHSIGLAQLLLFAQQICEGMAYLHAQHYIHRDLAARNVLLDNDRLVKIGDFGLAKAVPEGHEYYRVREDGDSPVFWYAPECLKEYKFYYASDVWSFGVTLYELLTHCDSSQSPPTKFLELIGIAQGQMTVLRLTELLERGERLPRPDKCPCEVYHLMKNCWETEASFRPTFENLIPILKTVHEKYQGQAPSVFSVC

Row | Compound | IC50 (JAK2; [2]) | IC50 (JAK3) | further results
1 | CCC1(n2cc(-c3nc(-c4cnn(C)c4)cn4nccc34)cn2)CN(S(=O)(=O)C(F)(F)F)C1 [Example 48, 4-(1-(3-ethyl-1-((trifluoromethyl)sulfonyl)azetidin-3-yl)-1H-pyrazol-4-yl)-6-(1-methyl-1H-pyrazol-4-yl)pyrazolo[1,5-a]pyrazine] | < 10 nM | – | IC50 (Human Tyk2 kinase domain; [1]): < 10 nM
2 | CC[C@@H](CC1CC1)n1cc(-c2nc(-c3cnn(C[C@@H](O)CO)c3)cn3nccc23)cn1 [Example 205, (R)-3-(4-(4-(1-((S)-1-cyclopropylbutan-2-yl)-1H-pyrazol-4-yl)pyrazolo[1,5-a]pyrazin-6-yl)-1H-pyrazol-1-yl)propane-1,2-diol] | – | 1000 to 10000 nM | IC50 (Human Tyk2 kinase domain): 10 to 100 nM; IC50 (JAK1): 100 to 1000 nM; IC50 (JAK2): 10 to 100 nM
3 | (R)-3-(4-(4-(1-((S)-2,2-dimethylcyclopentyl)-1H-pyrazol-4-yl)pyrazolo[1,5-a]pyrazin-6-yl)-1H-pyrazol-1-yl)propane-1,2-diol [Example 95] | 1000 to 10000 nM | – | IC50 (Human Tyk2 kinase domain; [1]): 1000 to 10000 nM
4 | CCC(CC)n1cc(-c2nc(-c3cnn(C4CN(S(C)(=O)=O)C4)c3)cn3nccc23)cn1 [Example 37, 6-(1-(1-(methylsulfonyl)azetidin-3-yl)-1H-pyrazol-4-yl)-4-(1-(pentan-3-yl)-1H-pyrazol-4-yl)pyrazolo[1,5-a]pyrazine] | < 10 nM | – | –
5 | (1s,3s)-3-(4-(4-(1-(pentan- 3-yl)-1H-pyrazol-4- yl)pyrazolo[1,5-a]pyrazin- 6-yl)-1H-pyrazol-1-yl) cyclobutanecarboxamide [Example 168] | 10 to 100 nM | – | IC50 (JAK1; read-out: JAK1 Enzyme IC50 1 mM ATP, 1 mM ATP, averaged IC50 ranges): 1000 to 10000 nM; IC50 (JAK3; read-out: JAK3 Enzyme IC50 1 mM ATP, 1 mM ATP, averaged IC50 ranges): 1000 to 10000 nM

Further lines, with some results ahead:

Row | IC50 (JAK2; [2]) | IC50 (JAK3) | Compound | further results
6 | – | 1000 to 10000 nM | CCC(CC)n1cc(-c2nc(-c3cnn([C@H]4CC[C@H](O)CC4)c3)cn3nccc23)cn1 [Example 118, trans-4-(4-(4-(1-(pentan-3-yl)-1H-pyrazol-4-yl)pyrazolo[1,5-a]pyrazin-6-yl)-1H-pyrazol-1-yl)cyclohexanol] | –
7 | – | 1000 to 10000 nM | CCC(CC)n1cc(-c2nc(-c3cnn([C@H]4CC[C@@H](O)CC4)c3)cn3nccc23)cn1 [Example 121, cis-4-(4-(4-(1-(pentan-3-yl)-1H-pyrazol-4-yl)pyrazolo[1,5-a]pyrazin-6-yl)-1H-pyrazol-1-yl)cyclohexanol] | –
8 | – | 1000 to 10000 nM | CCC(CC)n1cc(-c2nc(-c3cnn([C@H]4C[C@@](C)(O)C4)c3)cn3nccc23)cn1 [Example 162, (1s,3 s)-1-methyl-3-(4-(4-(1-(pentan-3-yl)-1H-pyrazol-4-yl)pyrazolo[1,5-a]pyrazin-6-yl)-1H-pyrazol-1-yl)cyclobutanol] | –
